Biological target: T1, T4 DNA ligase (Enterobacteria phage T4, UniProt P00970)
T1 construct: purchased New England Biolabs
Assay: Ligation yield with modified ATP cofactors on matched and mismatched templates, PAGE analysis
Format: biochemical, bacteriophage T4
Settings: for discrimination of modified cofactor between matched and mismatched templates: matched T-A versus mismatched C-A, G-A, A-A, panel of ten modified cofactors at 1 mM
Description: Each 20 μL reaction was performed in buffer containing 50 mM Tris-HCl (pH 7.5), 10 mM MgCl2, 10 mM dithiothreitol, 25 μg/ml bovine serum albumin. 1 mM ATP was added to the buffer separately. The donor (LP3′T w/PBS), acceptor (Com3F w/PBS), and template (Alg) were at 0.1 μM equimolar amounts. The acceptor, donor, and template were denatured at 95° C. for 3 minutes and annealed at 4° C. for 3 minutes. Ligation was initiated by adding 400 units of T4 ligase (New England Biolabs) to each reaction. Ligation proceeded at 16° C. for 20 minutes. Ligation was terminated by heating the reaction to 65° C. for 10 minutes and adding an equal volume of 2×TBE-Urea buffer (Invitrogen). Samples were run on 6% TBE-Urea Novex gels (Invitrogen). The gels were stained with SYBR Gold nucleic acid stain (Invitrogen) according to manufacturer's protocol.
ATP analogs were compared to the corresponding natural ATP cofactor for their ability to join matched and mismatched templates (FIG. 4). ATP analogs were evaluated for relative ligation yield in the presence of matched template (LP3′T Acceptor w/PBS and Alg template; T-A matched base pair at the 3′-end of the acceptor strand) to the relative yield when a mismatched template was used (LP3′C Acceptor w/PBS and Alg template; C-A mismatched base pair on 3′-end of the acceptor strand). Reactions were performed as described for Example 1, with a cofactor of interest included in the reaction at 1 mM concentration. Natural ATP substrate was compared to the following modified cofactors: 7-deaza-ATP (7-deaza-adenosine-5′-triphosphate), N1-methyl-ATP (N1-methyl-adenosine-5′-triphosphate), 2-amino-ATP (2-amino-adenosine-5′-triphosphate), 2′-amino-2′-deoxy-ATP (2′-amino-2′-deoxyadenosine-5′-triphosphate), 3′-amino-2′,3′-dideoxy-ATP (3′-amino-2′,3′-dideoxy-adenosine-5′-triphosphate) (FIG. 4). All modified cofactors supported ligation with similar efficiency to natural ATP when a matched template was employed.
One method of determining the ligation yield of a ligation component of interest (e.g., modified ligase cofactors, modified donors or modified acceptors) is by assigning a specificity number. Specificity numbers can be determined for example, by dividing the ligation yield of a matched case by the ligation yield of a mismatched case where a single base pair differs relative to the matched case. […] The yields are then normalized to the template readings in the same reaction, with subsequent normalization to the ligation yield for a reaction including the natural (ATP) cofactor, where ATP has a normalized yield of 1.0. For example, in the case of 2′-deoxy-ATP (2′-deoxy-adenosine-5′-triphosphate; FIG. 4), the ligation yield in the matched case (LP3′T Acceptor w/PBS and Alg template; T-A matched base pair on 3′ end of the acceptor strand) was 1.34. In the mismatched case (LP3′C Acceptor w/PBS and Alg template; C-A mismatched base pair on 3′ end of the acceptor strand) the ligation yield was 0.18. Accordingly, the specificity number assigned to 2′-deoxy-ATP in a C-A mismatch case was 1.34÷0.18 or 7.44. A value greater than one is indicative of improved ligation specificity. A value less than one is indicative of reduced ligation specificity.
ATP analogs were compared to the natural ATP cofactor for their ability to join matched and mismatched templates for relative ligation yield in the presence of matched template (LP3′T Acceptor w/PBS and Alg template; T-A matched base pair on 3′-end of the acceptor strand) relative to the yield of templates which contained a mismatched base pair on 3′-end of the acceptor: 1) LP3′C Acceptor w/PBS and Alg template; C-A mismatch, 2) LP3′G Acceptor w/PBS and Alg template; G-A mismatch, and 3) LP3′A Acceptor w/PBS and Alg template; A-A mismatch (FIG. 5). Reactions were performed as described for Example 1, with a cofactor of interest included in the reaction at 1 mM concentration. […]

T1 sequence (P00970 whole entry): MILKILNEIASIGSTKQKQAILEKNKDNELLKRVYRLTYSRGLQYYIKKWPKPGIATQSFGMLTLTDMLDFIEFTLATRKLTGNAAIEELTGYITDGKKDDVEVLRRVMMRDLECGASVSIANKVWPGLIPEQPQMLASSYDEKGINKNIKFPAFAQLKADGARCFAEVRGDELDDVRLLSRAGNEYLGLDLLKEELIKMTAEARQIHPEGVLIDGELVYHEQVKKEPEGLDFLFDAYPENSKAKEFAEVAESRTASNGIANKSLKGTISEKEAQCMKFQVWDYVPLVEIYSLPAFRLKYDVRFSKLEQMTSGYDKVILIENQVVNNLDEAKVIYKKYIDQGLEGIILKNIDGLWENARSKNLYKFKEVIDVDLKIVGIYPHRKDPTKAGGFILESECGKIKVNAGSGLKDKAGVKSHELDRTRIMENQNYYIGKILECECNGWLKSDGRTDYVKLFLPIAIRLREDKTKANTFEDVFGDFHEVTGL

| SMILES | discrimination of modified cofactor between matched and mismatched templates | ligation yield in the mismatched case (LP3′C Acceptor w/PBS and Alg template, C-A mismatched base pair on 3′ end of acceptor, cofactor 1 mM, normalized to ATP = 1.0) | ligation yield in the matched case (LP3′T Acceptor w/PBS and Alg template, T-A matched base pair on 3′ end of acceptor, cofactor 1 mM, normalized to ATP = 1.0) | specificity number (matched (T-A) yield divided by mismatched (C-A) yield, greater than one = improved ligation specificity) |
| --- | --- | --- | --- | --- |
| Nc1ncnc2c1ncn2[C@H]1C[C@H](N)[C@@H](COP(=O)(O)OP(=O)(O)OP(=O)(O)O)O1 [3′-amino-2′,3′-dideoxy-adenosine-5′-triphosphate] | lead modifications of interest | – | – | – |
| Nc1ncnc2c1ncn2[C@H]1C[C@H](O)[C@@H](COP(=O)(O)OP(=O)(O)OP(=O)(O)O)O1 [2′-deoxy-ATP, 2′-deoxy-adenosine-5′-triphosphate] | lead modifications of interest | 0.18 | 1.34 | 7.44 |
| Nc1ncnc2c1ncn2[C@@H]1O[C@H](COP(O)(=S)OP(=O)(O)OP(=O)(O)O)[C@@H](O)[C@H]1O (stereo partly drawn) [5′-alpha-thio-adenosine-5′-triphosphate] | lead modifications of interest | – | – | – |

Source: patent publication US20140323354A1, “Chemically Modified Ligase Cofactors, Donors and Acceptors” (priority 2010, published 2014)
